In US7459451B2, “Pyrazolopyridine derivatives” (Astellas Pharma Inc., priority 2004, dated 2008):

Tests used:
[1] = target: U937 Phosphodiesterase IV (PDE IV); assay: Inhibition of U937 Phosphodiesterase IV (PDE IV); type: biochemical; conditions: inhibitory activity on PDE-IV; enzyme preparation from U937 cells, [3H]cAMP SPA assay, CI-930 10 μM present
Method: (a) Inhibition of U937 Phosphodiesterase IV (PDE IV)
Cultured U937 cells were washed twice and harvested with phosphate-buffered saline (PBS) by cell-scraper. After centrifugation, the cell pellet was suspended in homogenizing buffer (0.5% deoxycholate [DOC], 5 mM 2-mercaptoethanol, 1 μM leupeptin, 100 μM PMSF, 20 μM p-tosyl-L-lysine-chloromethyl ketone [TLCK] in PBS). The cell suspension was then sonicated for a couple of minutes and homogenized by a glass-Teflon homogenizer with twenty strokes. The homogenate was centrifuged at 200 g for 30 minutes, and the supernatant was further ultra-centrifuged at 100,000×g for 90 minutes (4° C.). The final supernatant was dialyzed against dialysis buffer, which was the same component as homogenizing buffer without DOC. The dialysate of enzyme preparation was stored at −20° C. until assay.
PDE4, activity was estimated with a Phosphodiesterase [^3H]cAMP SPA Enzyme Assay System (Amersham Pharmacia Biotech), using a 96 well Opti-plate. Reactions were initiated by addition of 0.025 μCi/well of [^3H]cAMP to the enzyme mixture containing 50 mM Tris-HCl (pH 7.5), 8.3 mM MgCl2, 1.7 mM EGTA, and various concentrations of the test compound or vehicle. CI-930 (10 μM in final), a specific PDE3, inhibitor, was also added in the reaction mixture. After incubation at 30° C. for 15 minutes, 50 μL of SPA beads suspension was added to each well. The well-plate was then shaken for 20 minutes by a plate mixer. Radio-activity in each well was counted by a Top Counter.
Test compounds were dissolved in 100% dimethylsulfoxide (DMSO) and diluted into respective concentrations with the final solution containing 1% v/v of DMSO.
IC50 values of test compounds for the enzyme activity of PDE4 was determined from regression analysis for log-logit conversion values of percent inhibition in the compound-treated tubes compared to that of the control. Percent inhibition was calculated with the following equation: Inhibition (%)={1−(C−B)/(A−B)}×100; in which A, B and C means mean values of radio-activity counts (dpm) of control, blank and the compound-treated tubes, respectively.

[2] = tested on: TNF-alpha production in rat peripheral blood mononuclear cells (PBMC); assay: Inhibition on TNF-alpha production in rat mononuclear cells; type: cell-based; conditions: inhibitory activity on TNF-alpha production, LPS 1 μg/mL, 24 hours, ELISA
Method: (b) Inhibition on TNF-alpha Production in Rat Mononuclear Cells 1. Test Method (1) Rat Peripheral Blood Mononuclear Cells (PBMC) Preparation
Male Wistar rat at the age of 15 weeks was anesthetized with ether and the blood (about 15 ml) was collected with a disposable syringe from the abdominal artery under celiotomy. Collected blood was transferred to a heparin containing polyethylene tube and an equal volume of RPMI1640 was added to each tube. Diluted blood was then piled tip to 20 ml of Lympholyte-Rat (Cedarlane Laboratories, Canada) in polystyrene centrifuge tube. After centrifugation at 3,000 rpm for 30 minutes, cells gathering in the center area of the gradient were collected by capillary and washed with 40 mL of RPMI1640 by twice of centrifugation at 1,200 rpm for 10 minutes. Precipitate was then suspended in 10 ml of Tris-ammonium-chloride buffer and stood for 10 minutes in order to lyse remaining erythrocytes. After centrifugation at 1,200 rpm for 10 minutes, the precipitate was washed twice with 50 ml of RPMI1640 by centrifugation. PBMC finally precipitated were suspended in RPMI1640 containing 1% fetal bovine serum and antibiotics. After cell counting, final suspension at 3×10^6 cells/mL in culture medium was prepared.
(2) TNF-alpha Production from Stimulated PBMCs
Rat PBMC prepared by the density gradient method using Lympholyte-Rat, were suspended in the culture medium mentioned above with the concentration of 3×10^6 cells/mL and 0.5 ml of the suspension was sowed into each well of a 24-well culture plate. Cells were incubated in the CO2 incubator for 24 hours with 0.25 ml of LPS in addition of 0.25 ml of concentrations of drugs or vehicle at the start of the incubation. Final concentration of LPS in the incubation medium was 1 μg/mL. After 24 hours, the supernatant of each well by centrifugation at 1,700 rpm for 10 minutes was stored at −80° C. until assay. TNF-alpha levels in the medium were measured by ELISA.
The IC50 values of drugs on cytokine productions in LPS stimulated PBMC were estimated by the regression analysis for the relative values of cytokine level in the drug-treated wells compared to those of the vehicle-treated ones.

Structure (SMILES)	IC50 [1]	melting point	IC50 [2]
CCn1ncc2c(-c3cncc(C)c3)c(/C=C/C(=O)O)c(-c3ccccc3)nc21 [Example 91, (2E)-3-[1-Ethyl-4-(5-methyl-3-pyridyl)-6-phenyl-1H-pyrazolo[3,4-b]pyridin-5-yl]acrylic acid]	< 1000 nM		15.7 nM
CCn1ncc2c(-c3cncc(C)c3)c(/C=C/C(=O)O)c(COCC3CCCCC3)nc21 [Example 89, (2E)-3-[6-[(Cyclohexylmethoxy)methyl]-1-ethyl-4-(5-methyl-3-pyridyl)-1H-pyrazolo[3,4-b]pyridin-5-yl]acrylic acid]	< 1000 nM	172 to 173 °C	85.6 nM
CCn1ncc2c(-c3ccc(Cl)s3)c(/C=C/C(=O)O)c(-c3ccccc3)nc21 [Example 207, (2E)-3-[4-(5-Chloro-2-thienyl)-1-ethyl-6-phenyl-1H-pyrazolo[3,4-b]pyridin-5-yl]acrylic acid]		187 to 188 °C	
CCn1ncc2c(-c3cncc(Cl)c3)c(/C=C/C(=O)O)c(-c3ccccc3)nc21 [Example 213, (2E)-3-[4-(5-Chloro-3-pyridyl)-1-ethyl-6-phenyl-1H-pyrazolo[3,4-b]pyridin-5-yl]acrylic acid]		242 to 244 °C	
CCn1ncc2c(CC3CCCCC3)c(/C=C/C(=O)O)c(-c3ccccc3)nc21 [Example 206, (2E)-3-[4-(Cyclohexylmethyl)-1-ethyl-6-phenyl-1H-pyrazolo[3,4-b]pyridin-5-yl]acrylic acid]		201 to 202 °C	
CCn1ncc2c(-c3cncc(C)c3)c(CCC(=O)O)c(COCC3CCCCC3)nc21 [Example 96, 3-[6-[(Cyclohexylmethoxy)methyl]-1-ethyl-4-(5-methyl-3-pyridyl)-1H-pyrazolo[3,4-b]pyridin-5-yl]propanoic acid]		183 to 184 °C	
CCn1ncc2c(-c3cncc(C)c3)c(C(=O)NCCOc3ccccc3)c(-c3ccccc3)nc21 [Example 246, 1-Ethyl-4-(5-methyl-3-pyridyl)-N-(2-phenoxyethyl)-6-phenyl-1H-pyrazolo[3,4-b]pyridine-5-carboxamide]		175 to 176 °C	
CCn1ncc2c(-c3ccnc(C)c3)c(CCC(=O)O)c(C(C)C)nc21 [Example 351, 3-[1-Ethyl-6-isopropyl-4-(2-methyl-4-pyridyl)-1H-pyrazolo[3,4-b]pyridin-5-yl]propanoic acid]		187 to 189 °C	

The next lines start with results.

IC50 [1]	melting point	Structure (SMILES)	IC50 [2]
< 1000 nM	189 to 190 °C	CCn1ncc2c(-c3cncc(Br)c3)c(/C=C/C(=O)O)c(C)nc21 [Example 84, (2E)-3-[4-(5-Bromo-3-pyridyl)-1-ethyl-6-methyl-1H-pyrazolo[3,4-b]pyridin-5-yl]acrylic acid]	62.7 nM
	170 to 172 °C	CCC(CC)NC(=O)c1c(-c2ccccc2)nc2c(cnn2CC)c1-c1cncc(C)c1 [Example 245, 1-Ethyl-N-(1-ethylpropyl)-4-(5-methyl-3-pyridyl)-6-phenyl-1H-pyrazolo[3,4-b]pyridine-5-carboxamide]	
< 1000 nM	165 to 166 °C	CCn1ncc2c(-c3cncc(Br)c3)c(C#N)c(C)nc21 [Example 73, 4-(5-bromo-3-pyridyl)-1-ethyl-6-methyl-1H-pyrazolo[3,4-b]pyridine-5-carbonitrile]	27 nM
	218 to 220.5 °C	CCn1ncc2c(-c3cncc(Cl)c3)c(/C=C/C(=O)O)c(C(C)C)nc21 [Example 228, (2E)-3-[4-(5-Chloro-3-pyridyl)-1-ethyl-6-isopropyl-1H-pyrazolo[3,4-b]pyridin-5-yl]acrylic acid]	
	195 to 196 °C	CCn1ncc2c(-c3cncc(C)c3)c(/C=C/C(=O)O)c(COC)nc21 [Example 82, (2E)-3-[1-ethyl-6-(methoxymethyl)-4-(5-methyl-3-pyridyl)-1H-pyrazolo[3,4-b]pyridin-5-yl]acrylic acid]	
	184 to 185.5 °C	CCn1ncc2c(-c3cncc(C)c3)c(CCC(=O)O)c(-c3ocnc3C)nc21 [Example 79, 3-[1-ethyl-6-(4-methyl-1,3-oxazol-5-yl)-4-(5-methyl-3-pyridyl)-1H-pyrazolo[3,4-b]pyridin-5-yl]propanoic acid]	
	212 to 213 °C	CCn1ncc2c(-c3cncc(C)c3)c(CCC(=O)O)c(C3CCC3)nc21 [Example 230, 3-[6-cyclobutyl-1-ethyl-4-(5-methyl-3-pyridyl)-1H-pyrazolo[3,4-b]pyridin-5-yl]propanoic acid]	
	178 to 179.5 °C	CCn1ncc2c(-c3cncc(Br)c3)c(CCC(=O)O)c(C)nc21 [Example 93, 3-[4-(5-Bromo-3-pyridyl)-1-ethyl-6-methyl-1H-pyrazolo[3,4-b]pyridin-5-yl]propanoic acid]	
	235 to 237 °C	CCn1ncc2c(-c3cncc(C)c3)c(CCC(=O)O)c(-c3ccccc3)nc21 [Example 98, 3-[1-Ethyl-4-(5-methyl-3-pyridyl)-6-phenyl-1H-pyrazolo[3,4-b]pyridin-5-yl]propanoic acid]	
	160 to 161 °C	CCn1ncc2c(-c3cncc(C)c3)c(C#N)c(C)nc21 [Example 74, 1-Ethyl-6-methyl-4-(5-methyl-3-pyridyl)-1H-pyrazolo[3,4-b]pyridine-5-carbonitrile]	
